Test results: the supplement of paper PMC10307832

Tests used:
Assay in all cases: relative viability (nuclei count vs DMSO), 5 days (fraction); higher = more cells survive
BAY61-3606 + Dasatinib = compound: COC1=C(C=C(C=C1)C2=CC3=NC=CN3C(=N2)NC4=C(C=CC=N4)C(=O)N)OC [BAY61-3606] + Cc1nc(Nc2ncc(C(=O)Nc3c(C)cccc3Cl)s2)cc(N2CCN(CCO)CC2)n1 [Dasatinib] (partner 0.075 µM)
Method in brief: (§1)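 Lung cancer cell lines, seeded in 1536-well plates, were treated the following day by pin tool with a single drug or with five library-drug doses (not always all listed) in √10 steps on top of a fixed anchor-drug dose. Cells were fixed and nuclei stained in one step after 5 days, and nuclei were counted. Relative viability is the nuclei count for treated wells divided by that for vehicle wells, reported as medians of duplicate plates.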

Doxorubicin + Alpelisib = compound: COc1cccc2c1C(=O)c1c(O)c3c(c(O)c1C2=O)C[C@@](O)(C(=O)CO)C[C@@H]3O[C@H]1C[C@H](N)[C@H](O)[C@H](C)O1 [Doxorubicin] + Cc1nc(NC(=O)N2CCC[C@H]2C(N)=O)sc1-c1ccnc(C(C)(C)C(F)(F)F)c1 [Alpelisib] (partner 2 µM)
Method in brief: as §1

BAY61-3606 + Palbociclib = compound: COC1=C(C=C(C=C1)C2=CC3=NC=CN3C(=N2)NC4=C(C=CC=N4)C(=O)N)OC [BAY61-3606] + CC(=O)c1c(C)c2cnc(Nc3ccc(N4CCNCC4)cn3)nc2n(C2CCCC2)c1=O [Palbociclib] (partner 0.5 µM)
Method in brief: as §1

BAY61-3606 + Decitabine = compound: COC1=C(C=C(C=C1)C2=CC3=NC=CN3C(=N2)NC4=C(C=CC=N4)C(=O)N)OC [BAY61-3606] + Nc1ncn([C@H]2C[C@H](O)[C@@H](CO)O2)c(=O)n1 [Decitabine] (partner 2 µM)
Method in brief: as §1

UMC-11
relative viability (BAY61-3606 + Dasatinib; first compound 0.02 µM): 0.464 | relative viability (BAY61-3606 + Dasatinib; first compound 0.06325 µM): 0.587 | relative viability (BAY61-3606 + Dasatinib; first compound 0.2 µM): 0.568 | relative viability (BAY61-3606 + Dasatinib; first compound 0.6325 µM): 0.606 | relative viability (BAY61-3606 + Dasatinib; first compound 2 µM): 0.524 | relative viability (Doxorubicin + Alpelisib; first compound 0.001 µM): 1.11 | relative viability (Doxorubicin + Alpelisib; first compound 0.003162 µM): 1.17 | relative viability (Doxorubicin + Alpelisib; first compound 0.01 µM): 0.958 | relative viability (Doxorubicin + Alpelisib; first compound 0.03162 µM): 0.693 | relative viability (Doxorubicin + Alpelisib; first compound 0.1 µM): 0.968 | relative viability (BAY61-3606 + Palbociclib; first compound 0.02 µM): 0.352 | relative viability (BAY61-3606 + Palbociclib; first compound 0.06325 µM): 0.319 | relative viability (BAY61-3606 + Palbociclib; first compound 0.2 µM): 0.304 | relative viability (BAY61-3606 + Palbociclib; first compound 0.6325 µM): 0.361 | relative viability (BAY61-3606 + Palbociclib; first compound 2 µM): 0.339 | relative viability (BAY61-3606 + Decitabine; first compound 0.02 µM): 0.65 | relative viability (BAY61-3606 + Decitabine; first compound 0.06325 µM): 0.476 | relative viability (BAY61-3606 + Decitabine; first compound 0.2 µM): 0.601 | relative viability (BAY61-3606 + Decitabine; first compound 0.6325 µM): 0.597 | relative viability (BAY61-3606 + Decitabine; first compound 2 µM): 0.548
